This is an account of results in paper PMC2725430 (Journal of medicinal chemistry, 2009).

Data set [1] can be described thus: Cytotoxicity by neutral red dye uptake in 2.2.15 cells. The class given is cell-based. To be noted: human, 2.2.15 cells (confluent cultures, HBV-replicating).
The next data set deals with wild type HBV. Kind of data set: HBV antiviral assay in 2.2.15 cells, HBV DNA by quantitative blot hybridization. The data set is classed as cell-based. To be noted: read-out: Anti-HCV activity EC50(µM) virion, extracellular virion HBV DNA, nine consecutive daily doses.
Another data set relates to 2.2.15 cells. The data set is described as follows: Cytotoxicity by neutral red dye uptake in 2.2.15 cells. The data set is classed as cell-based. As to conditions: read-out: Cytotoxicity IC50; 2.2.15 cells, neutral red dye uptake.
The next data set deals with HBV WT. The data set is described as follows: Intracellular HBV DNA replication assay, transient transfection, WT. The data set is classed as cell-based. As to conditions: Hepatitis B virus, 96 h.
In another data set the test system is HBV mutant rtL180M. Kind of data set: Intracellular HBV DNA replication assay, transient transfection, rtL180M. The class given is cell-based. To be noted: Hepatitis B virus, 96 h.
Another data set deals with HBV mutant rtM204I. The data set is described as follows: Intracellular HBV DNA replication assay, transient transfection, rtM204I. As to conditions: Hepatitis B virus, 96 h. The data set is classed as cell-based.
A further data set deals with HBV mutant rtM204V. The data set is described as follows: Intracellular HBV DNA replication assay, transient transfection, rtM204V. The class given is cell-based. To be noted: Hepatitis B virus, 96 h.
In a further data set the test system is HCV RNA replicon. Kind of data set: HCV RNA replicon assay in Huh7 ET cells. The class given is cell-based. To be noted: in comparison to the parent compound 2. A general note: In antiviral work, replicon cells carry a viral genome segment that copies itself.

A value given as a limit tells only on which side of the number the result lay.

With `Nc1ccn([C@@H]2CS[C@H](CO)O2)c(=O)n1` [Compound 3TC, lamivudine, reference compound], the half-maximal inhibitory concentration (IC50) (commonly the point on the concentration scale where inhibition reaches its midpoint) at 9 days in data set [1] is > 2000 µM.
On to “4-amino-7-(2,3-dihydroxy-4-hydroxymethyl-4-cyclopenten-1-yl)-7H-pyrrolo[2,3-d]pyrimidine [Compound 2]”, for which the concentration giving a half-maximal response (EC50) (usually the concentration that produces a half-maximal response) in the data set with wild type HBV is 0.6 µM. The IC50 is 22 µM in the data set on 2.2.15 cells and > 100 µM in the data set with Huh7 ET cells.
Turning to `C=Cc1cn([C@@H]2C=C(CO)[C@@H](O)[C@H]2O)c2ncnc(N)c12` [Compound 22, (-)-(1R, 2S, 3R)-4-Amino-5-ethenyl-7-[2,3-dihydroxy-4-hydroxymethyl-4-cyclopenten-1-yl]-7H-pyrrolo[2,3-d]pyrimidine], the 50% inhibitory concentration (IC50) at 9 days in data set [1] was > 300 µM.
Take `C#Cc1cn([C@@H]2C=C(CO)[C@@H](O)[C@H]2O)c2ncnc(N)c12` [Compound 24, (-)-(1R, 2S, 3R)-4-Amino-5-ethynyl-7-[2,3-dihydroxy-4-hydroxymethyl-4-cyclopenten-1-yl]-7H-pyrrolo[2,3-d]pyrimidine]: the IC50 at 9 days in [1] is > 300 µM. Moreover, the concentration for a half-maximal effect (EC50) in the data set on HBV WT turned out to be 2.5 µM; in the data set on HBV mutant rtL180M, 2 µM; in the data set with HBV mutant rtM204I, 3 µM; in the data set on HBV mutant rtM204V it was 2.1 µM.
On to `Nc1ncnc2c1c(F)cn2[C@@H]1C=C(CO)[C@@H](O)[C@H]1O` [Compound 12, (-)-(1R, 2S, 3R)-4-Amino-5-fluoro-7-[2,3-dihydroxy-4-hydroxymethyl-4-cyclopenten-1-yl]-7H-pyrrolo[2,3-d]pyrimidine], for which the “anti-HCV activity (in words)” value in the data set on HCV RNA replicon was “devoid of anti-HCV activity”.
Regarding `Nc1ncnc2c1c(I)cn2[C@@H]1C=C(CO)[C@@H](O)[C@H]1O` [Compound 15, (-)-(1R, 2S, 3R)-4-Amino-5-iodo-7-[2,3-dihydroxy-4-hydroxymethyl-4-cyclopenten-1-yl] -7H-pyrrolo[2,3-d] pyrimidine], in [1], the IC50 at 9 days was > 300 µM.
